{"source": "patent US20220280423A1", "about": "“GLYMPHATIC DELIVERY BY MANIPULATING PLASMA OSMOLARITY” (University of Rochester, priority 2018, published 2022)", "key": {"[1]": {"test": "Stability of ^111In-LA-DOTA complex in CSF or brain homogenate (radio-TLC)", "format": "in vitro ADME, rat", "settings": "CSF and BH, 37° C., over 48 hours", "protocol": "To obtain CSF and brain homogenate for assessing AuNP stability, rats were anesthetized with subcutaneous ketamine (100 mg/kg) and dexmedetomidine (0.5 mg/kg) and fixed to a stereotaxic frame after verification of loss of response to painful stimuli. The cisterna magna was exposed and CSF was carefully drawn using a syringe and a 30 G needle. The rats were euthanized, the brains were quickly dissected and cut in four quarters. Each quarter was mixed in 5 mL phosphate-buffered saline (PBS) using a homogenizer. Both the CSF and brain homogenates were stored at —80° C. To allow UV-VIS characterization at low radioactivity level, radiolabeled AuNPs were mixed with non-radiolabeled, PEG-coated AuNPs from the same batch (see section 2.2). The gold concentration was the same in both AuNPs samples (0.373 mg/mL). […]\nFree ^111In-LA-DOTA: The following mixtures were prepared and analyzed: 1) CSF (30 μL)+^111In-LA-DOTA complex solution (30 μL), 2) Brain homogenate (15 μL)+PBS (15 μL)+^111In-LA-DOTA complex solution (30 μL). […] The mixtures were incubated at 37° C. and samples were analyzed by radio-TLC at 0, 4, 24, and 48 hours. […]"}, "[2]": {"test": "Head-focused SPECT/CT of ^111In—AuNP or ^111In-LA-DOTA infused to the cisterna magna, 0-3 h", "format": "in vivo, Sprague-Dawley rats", "design": "AUC0-3 h Striatum / AUC0-3 h Thalamus / AUC0-3 h Intracranial / AUC0-3 h Brain / AUC0-3 h Cervical spine / AUC0-3 h Nasal turbinates / AUC0-3 h Pharyngeal lymph vessel / AUC0-3 h Deep lymph nodes: concentration or dose not given beside the values", "settings": "VEH (isotonic saline i.p.)", "protocol": "Cisterna magna cannulation was performed as previously described with minor modifications (Xavier et al. J Vis Exp e57378-e57378 (2018)). Rats were anesthetized with a mixture of ketamine (100 mg/kg) and dexmedetomidine (0.5 mg/kg), administered subcutaneously in a volume of 2 ml/kg. After verification of loss of response to toe pinch, animals were placed in a stereotaxic frame and the neck slightly flexed (30°). The atlanto-occipital membrane overlying the cisterna magna was surgically exposed and a 30 G short-bevelled dental needle connected to PE10 tubing was carefully inserted into the intrathecal space. The catheter was fixed to the dura with cyanoacrylate glue and dental cement.\nFor post-operative analgesia, rats that were imaged for 24 hours received 5 mg/kg carprofen (Rimadyl® vet, 50 mg/mL, Orion Pharma, Espoo, Finland) s.c. at the beginning of surgery. Temperature was monitored and normothermia was maintained with a heating pad. […] The total volume of 32 μL was infused over 20 minutes. Five minutes before the AuNP infusion started, rats received either hypertonic saline (1 M, 20 mL/kg i.p.) or isotonic saline (0.154 M, 20 mL/kg i.p.). In the MRI experiments, all rats received a hypertonic saline injection, and the infusion rate of Gd-labelled nanoparticles was the same, but the total infusion volume was 80 μL.\nRadioactivity of the infused dose was measured with VIK-202 dose calibrator (Comecer, Joure, The Netherlands). The Vector4CT (MILabs, Utrecht, Netherlands) system was used for SPECT/CT imaging. SPECT images were acquired with a high energy ultra high resolution rat 1.8 mm pinhole collimator (HE-UHR-RM 1.8 mm ph). Acquired images were reconstructed using Similarity-Regulated Ordered Subsets […] (SROSEM) with a voxel size of 0.6 mm and 5 iterations. Both decays at the 111-In photopeaks (±20%) and background at 20% outside each photopeak window) were individually used for the reconstruction. Two highly accurate energy dependent system matrices for iterative image reconstruction (SROSEM' Vaissier, P. E. B., Beekman, F. J. & Goorden, M. C. Similarity-regulation of OS-EM for accelerated SPECT reconstruction. Physics in Medicine and Biology 61, 4300-4315 (2016)) were used to minimize artifacts in ^111In imaging with high local uptake and no background activity in surrounding structures. In each matrix the effects of energy dependent pinhole penetration (calculated using a ray tracer, Goorden et al. Physics in Medicine and Biology 61, 3712-3733 (2016)) and intrinsic detector resolution with depth of interaction (DOI) effects in the crystal were modelled. The DOI effect was calculated using GATE Monte Carlo simulations (Jan, S. et al. Physics in Medicine and Biology 49, 4543-4561 (2004)) that was stored in tables and used in the raytracer. Matrices were generated for 171 keV and 245 keV photons and were used during the reconstruction from projections of the corresponding energy peaks. The resulting SPECT images were then added and averaged to obtain the final ^111In image. Head and full-body CT images were acquired directly after the SPECT scans in the same imaging session. SPECT data were attenuation corrected, decay corrected to the half-life of ^111In, and corrected for injected activity, with each voxel representing the percentage of the injected dose per cm^3 (%ID/cm^3).\nHead and full-body CT images from each imaging session were nonlinearly registered using Advanced Normalization Tools (ANTs) to the appropriate population-based CT template (described below). Regions of interest (ROIs) were then either drawn manually in on individual CT images, manually in the template space, or were computed automatically in the case of the delineation between CSF and brain described below. Manual ROIs were drawn using ITK-SNAP software. Spherical ROIs (Ø 1.4 mm) for striatum and thalamus were placed using the in-house MRI template as reference. […]"}}, "note": "Entries after “also recorded” stand apart in the source; their conditions may differ. Marks after values point to notes of the source that are not given here.", "data": [{"smiles": "O=C(O)CN1CCN(CC(=O)O)CCN(CC(=O)NCCNC(=O)CCCCC2CCSS2)CCN(CC(=O)O)CC1", "note": "(stereo not drawn) [^111In-LA-DOTA, 2,2′,2″-(10-(2-((2-(5-(1,2-dithiolan-3-yl)pentanamido)ethyl)amino)-2-oxoethyl)-1,4,7,10-tetraazacyclododecane-1,4,7-triyl)triacetic acid, metal not drawn]", "values": [{"measurement": "stability of the chelate (release of ^111In from the chelator)", "setting": "[1]", "value": "stable; also recorded: did not result in appreciable destabilization"}, {"measurement": "AUC0-3 h Brain", "setting": "[2]", "value": "84.2 ± 13.6^c % ID · h"}, {"measurement": "AUC0-3 h CSF", "setting": "[2]", "value": "40.2 ± 9.4", "unit": "% ID · h"}, {"measurement": "AUC0-3 h Cervical spine", "setting": "[2]", "value": "126.5 ± 30.32", "unit": "% ID/cm^3 · h"}, {"measurement": "AUC0-3 h Deep lymph nodes", "setting": "[2]", "value": "0.1 ± 0.1^f % ID/cm^3 · h"}, {"measurement": "AUC0-3 h Nasal turbinates", "setting": "[2]", "value": "2.4 ± 1.4^b % ID/cm^3 · h"}, {"measurement": "AUC0-3 h Pharyngeal lymph vessel", "setting": "[2]", "value": "0.5 ± 0.1^d % ID/cm^3 · h"}, {"measurement": "AUC0-3 h Striatum", "setting": "[2]", "value": "4.5 ± 1.5", "unit": "% ID/cm^3 · h"}, {"measurement": "AUC0-3 h Thalamus", "setting": "[2]", "value": "7.5 ± 4.2^k % ID/cm^3 · h"}, {"measurement": "Peak tracer mass Brain", "setting": "[2]", "value": "39.6 ± 4.3", "unit": "% ID"}, {"measurement": "Peak tracer mass CSF", "setting": "[2]", "value": "27.3 ± 3.5", "unit": "% ID"}, {"measurement": "Peak tracer mass Intracranial", "setting": "[2]", "value": "65.4 ± 6.0", "unit": "% ID"}, {"measurement": "Peak tracer mass Striatum", "setting": "[2]", "value": "4.3 ± 1.6", "unit": "% ID/cm^3"}, {"measurement": "Peak tracer mass Thalamus", "setting": "[2]", "value": "8.3 ± 3.1^n % ID/cm^3"}, {"measurement": "Residual after 3 h Brain", "setting": "[2]", "value": "20.6 ± 5.0^g % ID"}, {"measurement": "Residual after 3 h CSF", "setting": "[2]", "value": "4.9 ± 1.3", "unit": "% ID"}, {"measurement": "Residual after 3 h Intracranial", "setting": "[2]", "value": "25.5 ± 6.2", "unit": "% ID"}, {"measurement": "AUC0-3 h Intracranial", "setting": "[2]; intracisternal infusion, rats", "value": "124.4 ± 22.5", "unit": "% ID · h"}]}]}
